The values that follow come from patent US11753370B2, “Methods of making deuterium-enriched N-acetylcysteine amide (d-NACA) and (2R, 2R′)-3,3′-disulfanediyl bis(2-acetamidopropanamide) (diNACA) and using d-NACA and diNACA to treat diseases involving oxidative stress” (Nacuity Pharmaceuticals, Inc., priority 2017, dated 2023).

This data set in a line: Plasma half-life. In kind it is in vivo. The text has this: Metabolism. An advantage of diNACA over N-acetylsysteine amide (NACA) is the reduction in metabolism rate compared to NACA. DiNACA has a longer plasma half-life than NACA. The major metabolites of diNACA are NACA and N-acetylcysteine (NAC) afforded by cleavage of the sulfur bond of diNACA to yield NACA and NAC. Dosing the patient with diNACA affords high greater bioavailability in tissues like the retina and aqueous humore compared to dosing with NACA, presumably due the higher lipophilicity of diNACA compared to NACA and the resulting in vivo cleavage to two NACA-like molecules, thereby effectively increasing the half-life of NACA in the body.
Metabolism. Deuterium-inhibition of NACA metabolism. An advantage of NACA-d3 is the reduction in metabolism rate compared to the non-deuterated NACA. Non-deuterated NACA has a plasma half-life of approximately 2 hours in fasting subjects and approximately 6 hours in fed subjects. The major metabolite of NACA is N-acetylcysteine (NAC) afforded by deamidation of the primary amide functional group of NACA by tissue (e.g., plasma or other tissue) amidase. Another metabolite of NACA is cysteine afforded by (a) deamidation of the primary amide functional group of NACA by tissue (e.g., plasma or other tissue) amidase and (b) de-acetylation of the secondary amide functional group of NACA by tissue (e.g., plasma or other tissue) amidase. Replacement of the acetyl methyl group hydrogen atoms with deuterium atoms slows down the action of tissue amidases on both (primary and secondary) amide functional groups of NACA-d3, thereby prolonging its residence time in the body, i.e., increasing the half-life in the body.

As for N-acetylcysteine amide [NACA], the plasma half-life result (fasting subjects) was “approximately 2 hours” and the plasma half-life entry (fed subjects) was “approximately 6 hours”.

As for `CC(=O)N[C@@H](CSSC[C@H](NC(C)=O)C(N)=O)C(N)=O` [DiNACA, (2R,2R′)-3,3′-disulfanediyl bis(2-acetamidopropanamide)], the “plasma half-life compared to NACA” value (comparison with NACA) was “longer”.
